The text below walks through data of article PMC12037037 (Proceedings of the National Academy of Sciences of the …, 2025).

pEC50: −log10 of the molar value.

Test [1] concerns female C57BL/6J mice, medial prefrontal cortex. In words: In vivo spinogenesis and synaptogenesis (S3EM, layer 1 mPFC). The following applies: 24 h.
In test [2] the test system is panel of 55 central nervous system targets. In words: Competitive radioligand binding selectivity panel (Eurofins Discovery). Here is the method:
Figure S3. Selectivity profiles for (+)-JRT and (–)-JRT across 55 central nervous system targets. The effects of (+)- JRT (10 μM) and (–)-JRT (10 μM) on a wide range of targets were assessed by Eurofins Discovery. Data represent % inhibition of the binding of a radioactively labeled ligand specific for each target. Assays were conducted in duplicate and the results were averaged.
Data Analysis and Statistics. Treatments were randomized, and data were analyzed by experimenters blinded to treatment conditions. Statistical analyses were performed using GraphPad Prism (version 10.0.3) unless noted otherwise.
All comparisons were planned prior to performing each experiment. No data were excluded. Data are represented as mean ± SEM, unless noted otherwise, with asterisks indicating *p < 0.05, **p < 0.01, ***p < 0.001, and ****p < 0.0001. Details of all statistical tests are shown in SI Appendix, Table S1. […]
Both (+)-JRT and (–)-
JRT were synthesized in-house and judged to be analytically pure based on NMR and LC-MS data. For cell culture experiments, VEH = 0.1% (agonist studies) or 0.2% (antagonist studies) molecular biology grade dimethyl sulfoxide (Sigma-Aldrich). For in vivo experiments, compounds were administered i.p. at 5 mL/kg using 0.9% saline as the vehicle, unless noted otherwise. VEH = USP grade saline (0.9%). Stock solutions for behavioral assays were prepared fresh before use.
Fumarate salts of (+)-JRT and (–)-JRT were used for all biological studies unless noted otherwise.
Animals. All experimental procedures involving animals were approved by the Institutional Animal Care and Use Committee (IACUC) at the University of California, Davis, the Salk Institute, Weill Cornell Medicine, McLean Hospital (Harvard Medical School), or the Contract Research Organization (CRO) where the study was performed. All procedures involving animals adhered to principles described in the National Institutes of Health Guide for the Care and Use of Laboratory Animals.
Animals were either obtained from Jackson Laboratory (Sacramento, C.A.) or bred in-house unless noted otherwise. Power analyses were conducted to ensure appropriate sample sizes for all experiments involving animals. Animals were housed 2–5 animals of the same sex per cage on a 12h light/dark cycle and were given ad libitum access to food and water unless noted otherwise. The University of California, Davis, the Salk Institute, and Weill Cornell Medicine are accredited by the Association for Assessment and Accreditation of Laboratory Animal Care International (AAALAC). Whenever possible, both sexes were utilized. However, a single sex was utilized in some cases when 1) a contract research organization had only […]
Radioligand Binding Selectivity Panel. Competitive radioligand binding studies for (+)-JRT (10 μM) and (–)-JRT (10 μM) were performed across a panel of receptors at Eurofins Discovery. Experiments were performed using the free bases of […]
radioligand and source of receptor (5,6,7,8,9,10,11,12).
Radioligand Binding Assays (5-HT2AR and 5-HT2CR). The 5-HT2AR and 5-HT2CR competitive radioligand binding assays were performed at Epics Therapeutics S.A. (Belgium, FAST-0505B) using conventional methods. Experiments were performed using the free bases of (+)-JRT and (–)-JRT. […] Nonspecific binding was determined by co-incubation with 200-fold excess of cold competitor DOI. […]

Test [3] concerns the target T1, human recombinant 5-HT2AR (Homo sapiens, UniProt P28223).
T1 construct: host or cells: CHO-K1
In words: IP1 functional assay (5-HT2AR). Particulars: 5-HT2A, functional assay relevant to G protein activation (IP1), agonist mode. The format is cell-based.
Method: (§1) IP1 Assay (5-HT2AR and 5-HT2CR). The 5-HT2AR and 5-HT2CR IPOne HTRF assays were performed at Epics
(§2) Therapeutics S.A. (Belgium, FAST-0505I) using conventional methods. Experiments were performed using the free bases
(§3) of (+)-JRT and (–)-JRT. Briefly, CHO-K1 cells expressing human recombinant 5-HT2AR grown to mid-log phase in culture
(§4) media without antibiotics were detached with PBS-EDTA, centrifuged, and resuspended in medium without antibiotics
(§5) buffer. Then, 20,000 cells were distributed in a 96-well plate and incubated overnight at 37 °C with 5% CO2. For agonist
(§6) were added to each well. The plate was incubated for 60 min at 37 °C with 5% CO2. After addition of the lysis buffer containing
(§7) IP1-d2 and anti-IP1 cryptate detection reagents, plates were incubated for 1 h at room temperature and fluorescence ratios
(§8) were measured according to the manufacturer’s specifications using the HTRF kit.
IP1 Assay (5-HT2BR). […]
(§9) Following incubation, the cells are lysed and the fluorescence acceptor (D2-
labeled IP1) and fluorescence donor (anti-IP1 antibody labeled with europium cryptate) were added. […]
(§10) temperature, the fluorescence transfer was measured at lex = 337 nm and lem = 620 and 665 nm using a microplate
(§11) reader (Envision, Perkin Elmer). The IP1 concentration was determined by dividing the signal measured at 665 nm by that
measured at 620 nm (ratio). […]

The target of test [4] is T2, 5-HT2A receptors (Gq activation) (Homo sapiens, UniProt P28223).
T2 construct: expressed in transfected cells; host or cells: HEK293T (transient)
T2 sequence (P28223 whole entry): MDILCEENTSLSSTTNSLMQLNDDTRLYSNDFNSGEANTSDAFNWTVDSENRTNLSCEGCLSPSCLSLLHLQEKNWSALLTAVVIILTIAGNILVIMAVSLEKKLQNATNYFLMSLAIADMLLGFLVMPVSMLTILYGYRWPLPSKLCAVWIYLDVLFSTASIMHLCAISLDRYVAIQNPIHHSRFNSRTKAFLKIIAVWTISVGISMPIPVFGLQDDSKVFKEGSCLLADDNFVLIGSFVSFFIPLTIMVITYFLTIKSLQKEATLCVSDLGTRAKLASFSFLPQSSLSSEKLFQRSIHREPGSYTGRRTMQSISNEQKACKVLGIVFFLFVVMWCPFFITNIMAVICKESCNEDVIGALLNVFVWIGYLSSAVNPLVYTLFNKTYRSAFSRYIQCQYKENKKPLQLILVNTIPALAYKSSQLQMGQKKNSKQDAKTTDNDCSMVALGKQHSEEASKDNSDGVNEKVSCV
Briefly: BRET-based assay of Gq activation. The format is cell-based. In general terms: In BRET a luciferase serves as donor, and the signal depends on an acceptor being close.
Method: as §1, §2, §3, §4, §5, §6, §7, §8
IP1 Assay (5-HT2BR). The 5-HT2BR IP1 assays were performed at Eurofins Cerep SA (Celle l’Evescault, France) using
conventional methods (Catalog #3344) as described previously.14 Experiments were performed using the free bases of (+)-
JRT and (–)-JRT. Briefly, CHO cells transfected with the human 5-HT2B receptor were suspended in a buffer containing
10 mM Hepes/NaOH (pH 7.4), 4.2 mM KCl, 146 mM NaCl, 1 mM CaCl2, 0.5 mM MgCl2, 5.5 mM glucose and 50 mM LiCl.
Then the cells were distributed in microplates at a density of ~2.104 cells/well and incubated for 30 min at 37°C in the
presence of buffer (basal control), test compound, or reference agonist. For stimulated control measurement, separate
as §9
labeled IP1) and fluorescence donor (anti-IP1 antibody labeled with europium cryptate) were added. After 60 min at room
as §10, §11
measured at 620 nm (ratio).
BRET-Based GPCR Assays. […]

T1 sequence (P28223 whole entry): as above

Turning to `CCN(CC)C(=O)[C@@H]1C=C2c3cccc4ccn(c34)C[C@H]2N(C)C1` [(+)-JRT], in test [1] (1 mg/kg IP), the Synapse size entry is recorded as “remained unchanged”. Besides, in test [1] (single administration 1 mg/kg IP, S3EM), the “Increase in synapse density within the mPFC” value amounted to 18%. For the same compound, the “Increase in dendritic spine density within the mPFC” value in test [1] (single administration 1 mg/kg IP, layer 1, S3EM) was 46%. Also, the “Selectivity across panel of 55 central nervous system targets” value in test [2] (10 μM, free bases) is given as “highly selective for a subset of serotonin receptors”. For the same compound, the “Affinity for dopamine, histamine, or adrenergic receptors” value in test [2] (radioligand binding, unlike LSD) is listed as “neither of these compounds exhibited affinity”. Moreover, the “Affinity for dopamine, histamine, muscarinic, and adrenergic receptors” value in test [2] (unlike CLZ) is listed as “lacks affinity”. Moreover, the Emax came out at 81% in test [3] and 33% in test [4] (read-out: Gq Activation: EMax). Further, the pEC50 is 9.40 in test [4] (Gq Activation: EC50, agonist mode) and 6.03 in test [4] (Gq Activation: EC50, antagonist mode, cotreated with 10 μM serotonin (5-HT + compound)).

What is called Emax is the size of the effect at its maximum, as opposed to the concentration needed. As a reminder, the pEC50 is −log10 of the EC50, conventionally taken in molar units.
